# Assay results: PubChem BioAssay AID270 (DTP/NCI, 2004)
# Several values for one entry are separate records, joined by “and”; a condition that tells them apart may be missing. Equal values may be shown once. Results filed as inconclusive are left out.
# System: BDF1 mice, s.c. Lewis lung carcinoma, T/C %
# Test: NCI In Vivo Anticancer Drug Screen. Data for tumor model Lewis Lung Carcinoma (subcutaneous) in B6D2F1 (BDF1) mice
# Summary of the method: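 First, mice carry a transplantable tumor. Next, groups receive either compound or vehicle. Finally, survival or tumor dimensions in the dosed animals are divided by the corresponding control figure.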
# [1] = endpoint: mean tumor weight, dose: 15.0 mg/kg/injection, schedule: Q01DX011 (ip), vehicle: carboxymethylcellulose (CMC), higher = larger tumour
smiles,measurement,setting,value
COc1cccc2c1C(=O)c1c(O)c3c(c(O)c1C2=O)C[C@@](O)(C(=O)CO)C[C@@H]3OC1CC(N)C(O)C(C)O1 (stereo partly specified),T/C,"endpoint: median survival time, dose: 0.03 mg/kg/injection, schedule: Q01DX009 (ip), vehicle: saline, higher = longer survival",88 % of control
same,T/C,"endpoint: median survival time, dose: 0.06 mg/kg/injection, schedule: Q01DX009 (ip), vehicle: saline, higher = longer survival",88 % of control
same,T/C,"endpoint: median survival time, dose: 0.12 mg/kg/injection, schedule: Q01DX009 (ip), vehicle: saline, higher = longer survival",100 % of control
same,T/C,"endpoint: median survival time, dose: 0.25 mg/kg/injection, schedule: Q01DX009 (ip), vehicle: saline, higher = longer survival",105 % of control
same,T/C,"endpoint: median survival time, dose: 0.25 mg/kg/injection, schedule: Q08HX024 (ip), vehicle: saline, higher = longer survival",113 % of control
same,T/C,"endpoint: median survival time, dose: 0.5 mg/kg/injection, schedule: Q08HX024 (ip), vehicle: saline, higher = longer survival",182 % of control
same,T/C,"endpoint: median survival time, dose: 1.0 mg/kg/injection, schedule: Q08HX024 (ip), vehicle: saline, higher = longer survival",89 % of control
same,T/C,"endpoint: median survival time, dose: 1.92 mg/kg/injection, schedule: Q04DX003 (ip), vehicle: saline, higher = longer survival",104 % of control and 106 % of control
same,T/C,"endpoint: median survival time, dose: 1.92 mg/kg/injection, schedule: Q04DX003 (iv), vehicle: saline, higher = longer survival",93 % of control and 108 % of control
same,T/C,"endpoint: median survival time, dose: 2.74 mg/kg/injection, schedule: Q04DX003 (ip), vehicle: saline, higher = longer survival",99 % of control and 103 % of control
same,T/C,"endpoint: median survival time, dose: 2.74 mg/kg/injection, schedule: Q04DX003 (iv), vehicle: saline, higher = longer survival",99 % of control and 111 % of control
same,T/C,"endpoint: median survival time, dose: 3.36 mg/kg/injection, schedule: Q01DX001 (ip), vehicle: saline, higher = longer survival",101 % of control and 102 % of control
same,T/C,"endpoint: median survival time, dose: 3.36 mg/kg/injection, schedule: Q01DX001 (iv), vehicle: saline, higher = longer survival",101 % of control and 105 % of control
same,T/C,"endpoint: median survival time, dose: 3.9 mg/kg/injection, schedule: Q04DX003 (ip), vehicle: saline, higher = longer survival",105 % of control and 123 % of control
same,T/C,"endpoint: median survival time, dose: 3.9 mg/kg/injection, schedule: Q04DX003 (iv), vehicle: saline, higher = longer survival",108 % of control and 113 % of control
same,T/C,"endpoint: median survival time, dose: 4.8 mg/kg/injection, schedule: Q01DX001 (ip), vehicle: saline, higher = longer survival",98 % of control and 102 % of control
same,T/C,"endpoint: median survival time, dose: 4.8 mg/kg/injection, schedule: Q01DX001 (iv), vehicle: saline, higher = longer survival",90 % of control and 102 % of control
same,T/C,"endpoint: median survival time, dose: 5.6 mg/kg/injection, schedule: Q04DX003 (iv), vehicle: saline, higher = longer survival",105 % of control
same,T/C,"endpoint: median survival time, dose: 6.86 mg/kg/injection, schedule: Q01DX001 (ip), vehicle: saline, higher = longer survival",117 % of control
same,T/C,"endpoint: median survival time, dose: 6.86 mg/kg/injection, schedule: Q01DX001 (iv), vehicle: saline, higher = longer survival",111 % of control and 114 % of control
same,T/C,"endpoint: median survival time, dose: 9.8 mg/kg/injection, schedule: Q01DX001 (iv), vehicle: saline, higher = longer survival",105 % of control
same,T/C,"endpoint: median survival time, dose: 14.0 mg/kg/injection, schedule: Q01DX001 (ip), vehicle: saline, higher = longer survival",99 % of control
COc1cc2c(c(OC)c1OC)-c1ccc(OC)c(=O)cc1[C@@H](NC(=O)CF)CC2,T/C,"endpoint: median survival time, dose: 0.04 mg/kg/injection, schedule: Q01DX009 (ip), vehicle: saline with Tween-80, higher = longer survival",100 % of control
same,T/C,"endpoint: median survival time, dose: 0.09 mg/kg/injection, schedule: Q01DX009 (ip), vehicle: saline with Tween-80, higher = longer survival",95 % of control
same,T/C,"endpoint: median survival time, dose: 0.18 mg/kg/injection, schedule: Q01DX009 (ip), vehicle: saline with Tween-80, higher = longer survival",95 % of control
O=C1CC(c2ccc(OCN(CCCl)CCCl)cc2)CC(=O)C1CN(CCCl)CCCl (stereo unspecified),T/C,"endpoint: median survival time, dose: 0.5 mg/kg/injection, schedule: Q01DX009 (ip), vehicle: Klucel (hydroxypropylcellulose) (HPC), higher = longer survival",101 % of control
same,T/C,"endpoint: median survival time, dose: 1.0 mg/kg/injection, schedule: Q01DX009 (ip), vehicle: Klucel (hydroxypropylcellulose) (HPC), higher = longer survival",123 % of control
same,T/C,"endpoint: median survival time, dose: 2.0 mg/kg/injection, schedule: Q01DX009 (ip), vehicle: Klucel (hydroxypropylcellulose) (HPC), higher = longer survival",116 % of control
same,T/C,"endpoint: median survival time, dose: 4.0 mg/kg/injection, schedule: Q01DX009 (ip), vehicle: Klucel (hydroxypropylcellulose) (HPC), higher = longer survival",123 % of control
same,T/C,"endpoint: median survival time, dose: 8.0 mg/kg/injection, schedule: Q01DX009 (ip), vehicle: Klucel (hydroxypropylcellulose) (HPC), higher = longer survival",115 % of control
O=S(=O)(c1ccc(NC(=S)N/N=C/c2ccccc2O)cc1)N1CCCCC1,T/C,"endpoint: median survival time, dose: 12.5 mg/kg/injection, schedule: Q01DX009 (ip), vehicle: olive oil, sesame oil, peanut oil, higher = longer survival",98 % of control
same,T/C,"endpoint: median survival time, dose: 25.0 mg/kg/injection, schedule: Q01DX009 (ip), vehicle: olive oil, sesame oil, peanut oil, higher = longer survival",90 % of control
same,T/C,"endpoint: median survival time, dose: 50.0 mg/kg/injection, schedule: Q01DX009 (ip), vehicle: olive oil, sesame oil, peanut oil, higher = longer survival",87 % of control
same,T/C,"endpoint: median survival time, dose: 200.0 mg/kg/injection, schedule: Q01DX009 (ip), vehicle: olive oil, sesame oil, peanut oil, higher = longer survival",91 % of control
O=C1c2c(Cl)c(Cl)c(Cl)c(Cl)c2C(=O)N1c1nccs1,T/C,"endpoint: mean tumor weight, dose: 25.0 mg/kg/injection, schedule: Q01DX011 (ip), vehicle: carboxymethylcellulose (CMC), higher = larger tumour",62 % of control
same,T/C,"endpoint: mean tumor weight, dose: 50.0 mg/kg/injection, schedule: Q01DX011 (ip), vehicle: carboxymethylcellulose (CMC), higher = larger tumour",50 % of control
C[C@]12CC[C@H]3[C@@H](CC[C@]4(O)C[C@@H](O)CC[C@]34/C=N/O)[C@@]1(O)CC[C@@H]2C1=COC(=O)C1,T/C,"endpoint: mean tumor weight, dose: 1.87 mg/kg/injection, schedule: Q01DX011 (ip), vehicle: carboxymethylcellulose (CMC), higher = larger tumour",34 % of control
same,T/C,"endpoint: mean tumor weight, dose: 3.75 mg/kg/injection, schedule: Q01DX011 (ip), vehicle: carboxymethylcellulose (CMC), higher = larger tumour",58 % of control
same,T/C,[1],92 % of control
same,T/C,"endpoint: mean tumor weight, dose: 30.0 mg/kg/injection, schedule: Q01DX011 (ip), vehicle: carboxymethylcellulose (CMC), higher = larger tumour",61 % of control
C=CCn1c(=O)n(CC=C)c(=O)n(CC=C)c1=O,T/C,[1],82 % of control
same,T/C,"endpoint: mean tumor weight, dose: 120.0 mg/kg/injection, schedule: Q01DX011 (ip), vehicle: carboxymethylcellulose (CMC), higher = larger tumour",112 % of control
same,T/C,"endpoint: mean tumor weight, dose: 240.0 mg/kg/injection, schedule: Q01DX011 (ip), vehicle: carboxymethylcellulose (CMC), higher = larger tumour",67 % of control
N#CCC(=O)O,T/C,"endpoint: mean tumor weight, dose: 29.0 mg/kg/injection, schedule: Q01DX011 (ip), vehicle: saline, higher = larger tumour",103 % of control
same,T/C,"endpoint: mean tumor weight, dose: 44.0 mg/kg/injection, schedule: Q01DX011 (ip), vehicle: saline, higher = larger tumour",104 % of control
same,T/C,"endpoint: mean tumor weight, dose: 66.0 mg/kg/injection, schedule: Q01DX011 (ip), vehicle: other, higher = larger tumour",47 % of control
same,T/C,"endpoint: mean tumor weight, dose: 66.0 mg/kg/injection, schedule: Q01DX011 (ip), vehicle: saline, higher = larger tumour",64 % of control
CC[C@H](c1ccc(O)cc1)[C@@H](CC)c1ccc(O)cc1,T/C,"endpoint: mean tumor weight, dose: 12.5 mg/kg/injection, schedule: Q01DX011 (ip), vehicle: saline, higher = larger tumour",92 % of control
same,T/C,"endpoint: mean tumor weight, dose: 25.0 mg/kg/injection, schedule: Q01DX011 (ip), vehicle: saline, higher = larger tumour",82 % of control
same,T/C,"endpoint: mean tumor weight, dose: 50.0 mg/kg/injection, schedule: Q01DX011 (ip), vehicle: saline, higher = larger tumour",47 % of control
same,T/C,"endpoint: mean tumor weight, dose: 100.0 mg/kg/injection, schedule: Q01DX011 (ip), vehicle: saline, higher = larger tumour",16 % of control
ClCC[N+]12CC[N+](CCCl)(CC1)C2,T/C,"endpoint: median survival time, dose: 25.0 mg/kg/injection, schedule: Q01DX009 (ip), vehicle: saline, higher = longer survival",105 % of control
same,T/C,"endpoint: median survival time, dose: 50.0 mg/kg/injection, schedule: Q01DX009 (ip), vehicle: saline, higher = longer survival",106 % of control
COc1cc2c(cc1Oc1c(Oc3c(O)c(OC)cc4c3C(CC(C)C)N(C)CC4)c(OC)cc3c1C(CC(C)C)N(C)CC3)C(CC(C)C)N(C)CC2 (stereo unspecified),T/C,"endpoint: median survival time, dose: 12.5 mg/kg/injection, schedule: Q01DX009 (ip), vehicle: Klucel (hydroxypropylcellulose) (HPC), higher = longer survival",92 % of control
same,T/C,"endpoint: median survival time, dose: 25.0 mg/kg/injection, schedule: Q01DX009 (ip), vehicle: Klucel (hydroxypropylcellulose) (HPC), higher = longer survival",98 % of control
same,T/C,"endpoint: median survival time, dose: 50.0 mg/kg/injection, schedule: Q01DX009 (ip), vehicle: Klucel (hydroxypropylcellulose) (HPC), higher = longer survival",88 % of control
O=NN(CCCl)C(=O)NC1CCCC1,T/C,"endpoint: median tumor weight (est.), dose: 33.0 mg/kg/injection, schedule: Q01DX001 (ip), vehicle: saline, higher = larger tumour",62 % of control
same,T/C,"endpoint: median tumor weight (est.), dose: 67.0 mg/kg/injection, schedule: Q01DX001 (ip), vehicle: saline, higher = larger tumour",76 % of control
same,T/C,"endpoint: median tumor weight (est.), dose: 100.0 mg/kg/injection, schedule: Q01DX001 (ip), vehicle: saline, higher = larger tumour",56 % of control
O=NN(CCCl)C(=O)NC1CCC(C(=O)O)CC1 (stereo unspecified),T/C,"endpoint: median survival time, dose: 3.0 mg/kg/injection, schedule: Q01DX001 (ip), vehicle: saline with Tween-80, higher = longer survival",97 % of control and 117 % of control
same,T/C,"endpoint: median survival time, dose: 5.0 mg/kg/injection, schedule: Q01DX001 (ip), vehicle: saline with Tween-80, higher = longer survival",116 % of control
same,T/C,"endpoint: median survival time, dose: 7.0 mg/kg/injection, schedule: Q01DX001 (ip), vehicle: saline with Tween-80, higher = longer survival",110 % of control
same,T/C,"endpoint: median survival time, dose: 8.0 mg/kg/injection, schedule: Q01DX001 (ip), vehicle: saline with Tween-80, higher = longer survival",124 % of control
same,T/C,"endpoint: median survival time, dose: 11.0 mg/kg/injection, schedule: Q01DX001 (ip), vehicle: saline with Tween-80, higher = longer survival",113 % of control
same,T/C,"endpoint: median survival time, dose: 12.0 mg/kg/injection, schedule: Q01DX001 (ip), vehicle: saline with Tween-80, higher = longer survival",121 % of control
same,T/C,"endpoint: median survival time, dose: 13.0 mg/kg/injection, schedule: Q01DX001 (ip), vehicle: saline with Tween-80, higher = longer survival",111 % of control and 288 % of control and 180 % of control
same,T/C,"endpoint: median survival time, dose: 17.0 mg/kg/injection, schedule: Q01DX001 (ip), vehicle: saline with Tween-80, higher = longer survival",121 % of control
same,T/C,"endpoint: median survival time, dose: 20.0 mg/kg/injection, schedule: Q01DX001 (ip), vehicle: saline with Tween-80, higher = longer survival",206 % of control [middle of 5 runs]
same,T/C,"endpoint: median survival time, dose: 26.0 mg/kg/injection, schedule: Q01DX001 (ip), vehicle: saline with Tween-80, higher = longer survival",109 % of control
same,T/C,"endpoint: median survival time, dose: 27.0 mg/kg/injection, schedule: Q01DX001 (ip), vehicle: saline with Tween-80, higher = longer survival",196 % of control
same,T/C,"endpoint: median survival time, dose: 30.0 mg/kg/injection, schedule: Q01DX001 (ip), vehicle: saline with Tween-80, higher = longer survival",228 % of control and 288 % of control and 219 % of control
